{"source": "patent US20240228491A1", "about": "“METHIONINE ADENOSYLTRANSFERASE INHIBITOR, PREPARATION METHOD THEREFOR AND APPLICATION THEREOF” (SCINNOHUB PHARMACEUTICAL CO., LTD., priority 2021, published 2024)", "key": {"MAT2a": {"target": "MAT2a (Homo sapiens (Human), UniProt P31153)", "sequence (P31153 whole entry)": "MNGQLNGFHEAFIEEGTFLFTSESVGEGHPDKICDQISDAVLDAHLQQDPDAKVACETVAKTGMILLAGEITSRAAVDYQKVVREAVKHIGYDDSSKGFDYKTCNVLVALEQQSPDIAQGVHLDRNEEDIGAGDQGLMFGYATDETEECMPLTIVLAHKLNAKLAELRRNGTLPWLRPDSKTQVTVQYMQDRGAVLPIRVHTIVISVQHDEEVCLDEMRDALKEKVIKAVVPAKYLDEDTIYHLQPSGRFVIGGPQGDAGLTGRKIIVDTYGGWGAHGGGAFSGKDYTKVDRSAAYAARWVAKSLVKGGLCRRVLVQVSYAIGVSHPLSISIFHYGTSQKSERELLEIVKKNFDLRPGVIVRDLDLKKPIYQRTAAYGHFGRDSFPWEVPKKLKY", "assay": "MAT2a enzymatic activity test (colorimetric assay)", "assay_type": "biochemical", "settings": "OD620, 150 min reaction, read-out: IC50 against MAT2a", "method": "The Colorimetric assay method was used to detect the IC50 value of the tested compounds on MAT2a.\nThe specific steps were as follows: The compounds having the test starling concentration of 1 μM or 10 μM were diluted into 10 concentration points in a 3-fold gradient. 250 nL of the solutions of the compounds to be tested with 10 different concentrations were taken and added into a 384 well plate for later use. 20 μg/mL of MAT2a enzyme solution was prepared with Assay buffer (50 mM Tris, 50 mM KCl, 10 mM MgCl2, 0.05% polyoxyethylene lauryl ether, pH 8.0). 15 μL of the MAT2a enzyme solution at 20 μg/mL was add into the wells of the compounds to be tested at different concentrations; and 15 μL of Assay buffer was added into the negative control well. An incubation was carried out for 15 minutes after shaking for mixing well. A mixed substrate solution (comprising 400 μM ATP and 600 μM L-Methionine) was prepared with Assay buffer. 10 μL of the mixed substrate solution was added to the positive control well, the compound to be tested well, and the negative control well, respectively, and the reaction began, for a reaction time of 150 min. Then, 50 μL of the reaction stop solution (BIOMOL Green™ Reagent Enzo lifesciences, Cargo No. BML-AK111-1000) was added to stop the reaction, followed by being centrifuged at 1000 rpm for 60 s and then being incubated for 15 min. OD620 was read and data were processed.\nBy using the log value of the concentration as the X-axis and the inhibition % as the Y-axis, the IC50 value of each compound against enzyme activity was obtained through employing the log(inhibitor) vs. response-Variable slope fitting dose-effect curve of the analysis software GraphPad Prism 5."}, "KP-4 cells": {"test_system": "KP-4 cells", "assay": "Inhibitory activity test of KP-4 cells", "assay_type": "cell-based", "settings": "Homo sapiens, 144 h incubation, read-out: KP-4 cell inhibitory activity IC50", "method": "On day 1, cell seeding: after digestion of the cells with trypsin, the cells were resuspended to 1*10^4/mL with RPMI1640 complete medium (HyClone Company, Cat. No. SH30809.01) supplemented with 10% FBS (Gibco, 10099141C), mixed evenly, and added into the 96-well plate at 100 μL/well. The plate was put back to the incubator for the adherent growth of cells. On day 2, the addition of the compounds to be tested: 100 μL of the complete medium containing the compounds (the concentration of the compound in the medium was formulated as follows: 3-fold gradient dilution from 60 μM, 10 concentration gradients in total) was added, incubated for 144 hours at 37° C., 5% CO2. On day 8, the cell culture plates were taken out from incubator and equilibrated to room temperature, excess medium was pipetted from the wells so that 50 μL of supernatant was retained, and 50 μL of CellCounting-Lite 2.0 (Nanjing Vazyme Biotech Co., Ltd., Cat. No. DD1101) reagent was added per well, and the cells were fully lysed by shaking at room temperature for 10 min, and incubated for 5 min to detect the fluorescence intensity.\n(§1) % Inhibition=100−(signal of the well with the compound to be tested−signal of the well with only medium and free of cells)/(signal of the well with cells but without addition of the compound−signal of the well with only medium and free of cells)×100.\n(§2) The log value of concentration was used as the X-axis and % Inhibition was used as the Y-axis, so as to fit the dose-effect curve and calculate the IC50 value using nonlinear regression (dose response−variable slope) in the analysis software GraphPad Prism 8."}, "HCT116 MTAP-/- cells": {"test_system": "HCT116 MTAP-/- cells", "assay": "Activity test of HCT116 MTAP gene homozygous deletion cells (CellTiter-Glo)", "assay_type": "cell-based", "settings": "Homo sapiens, HCT-116, 120 h incubation, read-out: HCT116 MTAP-/- Cell IC50", "method": "On day 1, cell seeding: after digestion of the cells with trypsin, the cells were resuspended to the desired density with the complete medium (RPMI-1640 supplemented with 10% FBS; the brand of FBS is EXCELL, Cat. No. FND500; the brand of RPMI-1640 is ATCC, Cat. No. 30-2001), mixed evenly, and added into the 96-well plate at 100 μL/well with a cell density of 1000-3000 cells per well. The plate was put back to the incubator for the adherent growth of cells. On day 2, the addition of the compounds to be tested: before the addition of the compounds, the cells were starved with serum-free medium for 4 h, then the complete medium containing the corresponding concentration of compounds was added thereto, and the cells were incubated at 37° C., 5% CO2 for 120 h. On day 7, the cell culture plates were taken out from incubator and equilibrated to room temperature. 50 μL of CellTiter-Glo (Promega Company, Cat. No. G7571) reagent was added per well, and the cells were fully lysed by shaking at room temperature for 2 min, and then incubated for another 60 min to detect the fluorescence intensity. Calculation formula:\nas §1\nThe fitting dose-effect curve of the analysis software GraphPad Prism 5 was used to give IC50 values of the individual compounds against cellular activity."}, "DOHH-2 cells": {"test_system": "DOHH-2 cells", "assay": "Inhibitory activity test of DOHH-2 cells", "assay_type": "cell-based", "settings": "Homo sapiens, 120 h incubation, CellTiter-Glo, read-out: DOHH-2 cell inhibitory activity IC50", "method": "On day 1, cell seeding: cells were resuspended to the desired density with DMEM complete medium (Gibico, Cat. No. 10569010) supplemented with 10% FBS (Gibco, 10099141C), mixed evenly, and added into the 384-well plate at 30 μL/well with a cell density of 800/well. The compounds to be tested were added as follows: 30 nL of DMSO solution containing the compound (the concentration of the compound in which was formulated as: 3-fold gradient dilution from 10 mM, 10 concentration points in total) was added, incubated for 120 h at 37° C., 5% CO2. On day 6, the cells treated with compounds were removed and equilibrated to room temperature, 30 μL of CellTiter-Glo (Promega company, Cat. No. G7573) reagent was added per well, and the cells were fully lysed by shaking at room temperature, and then incubated in dark at 37° C., 5% CO2 for 30 min, to detect the fluorescence intensity.\n% Inhibition=100−(signal of the well with the compound to be tested−signal of the well with only medium and free of cells)/(signal of the well with cells but without the addition of the compound−signal of the well with only medium and free of cells)×100.\nas §2"}}, "note": "pIC50: −log10 of the molar value.", "data": [{"molecule": "COCCn1cc2cc(-c3c(N)c4ccc(C(F)(F)F)nc4n(-c4ccc(Cl)cc4)c3=O)ccc2n1", "note": "[Example 48]", "values": [{"measurement": "pIC50", "setting": "MAT2a", "value": 7.79}, {"measurement": "pIC50", "setting": "KP-4 cells", "value": 6.77}, {"measurement": "pIC50", "setting": "HCT116 MTAP-/- cells", "value": 7.88}, {"measurement": "pIC50", "setting": "DOHH-2 cells", "value": 6.29}]}]}
